Columns and labels:
Assay type in all cases: functional
[1] = tested on: Staphylococcus epidermidis; assay: Antibacterial activity against methicillin-resistant Staphylococcus epidermidis isolate cpu2736 after 18 to 20 hrs by agar dilution method
Staphylococcus aureus [2] = assay: Antibacterial activity against methicillin-sensitive Staphylococcus aureus isolate cpu1344 after 18 to 20 hrs by agar dilution method
[3] = tested on: Staphylococcus epidermidis; assay: Antibacterial activity against methicillin-sensitive Staphylococcus epidermidis isolate cpu2089 after 18 to 20 hrs by agar dilution method
Staphylococcus aureus [4] = assay: Ratio of amoxicillin MIC to compound MIC for methicillin-resistant Staphylococcus aureus isolate cpu0887
Staphylococcus aureus [5] = assay: Antibacterial activity against methicillin-sensitive Staphylococcus aureus isolate cpu1044 after 18 to 20 hrs by agar dilution method
Staphylococcus aureus [6] = assay: Ratio of amoxicillin MIC to compound MIC for methicillin-resistant Staphylococcus aureus isolate cpu0446
Staphylococcus aureus [7] = assay: Antibacterial activity against methicillin-resistant Staphylococcus aureus isolate cpu1098 after 18 to 20 hrs by agar dilution method
Staphylococcus aureus [8] = assay: Ratio of tiamulin MIC to compound MIC for methicillin-resistant Staphylococcus aureus isolate cpu0446
Staphylococcus aureus [9] = assay: Antibacterial activity against methicillin-resistant Staphylococcus aureus isolate cpu3256 after 18 to 20 hrs by agar dilution method
Staphylococcus aureus [10] = assay: Ratio of tiamulin MIC to compound MIC for methicillin-resistant Staphylococcus aureus isolate cpu1098
Staphylococcus aureus [11] = assay: Antibacterial activity against methicillin-resistant Staphylococcus aureus isolate cpu0446 after 18 to 20 hrs by agar dilution method
Staphylococcus aureus [12] = assay: Ratio of tiamulin MIC to compound MIC for methicillin-resistant Staphylococcus aureus isolate cpu0887
[13] = tested on: Staphylococcus epidermidis; assay: Antibacterial activity against methicillin-sensitive Staphylococcus epidermidis isolate cpu0315 after 18 to 20 hrs by agar dilution method
[14] = tested on: Staphylococcus epidermidis; assay: Antibacterial activity against methicillin-sensitive Staphylococcus epidermidis isolate cpu0347 after 18 to 20 hrs by agar dilution method
[15] = tested on: Staphylococcus epidermidis; assay: Antibacterial activity against methicillin-resistant Staphylococcus epidermidis isolate cpu2623 after 18 to 20 hrs by agar dilution method
Staphylococcus aureus [16] = assay: Antibacterial activity against methicillin-sensitive Staphylococcus aureus isolate cpu0587 after 18 to 20 hrs by agar dilution method
Staphylococcus aureus [17] = assay: Ratio of amoxicillin MIC to compound MIC for methicillin-resistant Staphylococcus aureus isolate cpu1098
Staphylococcus aureus [18] = assay: Ratio of tiamulin MIC to compound MIC for methicillin-resistant Staphylococcus aureus isolate cpu3256
Staphylococcus aureus [19] = assay: Antibacterial activity against methicillin-resistant Staphylococcus aureus isolate cpu0887 after 18 to 20 hrs by agar dilution method
Staphylococcus aureus [20] = assay: Ratio of amoxicillin MIC to compound MIC for methicillin-resistant Staphylococcus aureus isolate cpu3256
Staphylococcus aureus [21] = assay: Antibacterial activity against methicillin-sensitive Staphylococcus aureus isolate cpu0211 after 18 to 20 hrs by agar dilution method
[22] = tested on: Staphylococcus epidermidis; assay: Antibacterial activity against methicillin-resistant Staphylococcus epidermidis isolate cpu3889 after 18 to 20 hrs by agar dilution method
[23] = tested on: Staphylococcus epidermidis; assay: Antibacterial activity against methicillin-resistant Staphylococcus epidermidis isolate cpu3569 after 18 to 20 hrs by agar dilution method
[24] = tested on: Staphylococcus epidermidis; assay: Antibacterial activity against methicillin-sensitive Staphylococcus epidermidis isolate cpu1561 after 18 to 20 hrs by agar dilution method

C=C[C@]1(C)C[C@@H](OC(=O)CSCc2csc(N)n2)[C@]2(C)[C@H](C)CC[C@]3(CCC(=O)[C@H]32)[C@@H](C)[C@@H]1O
0.5 µg/mL: MIC (Staphylococcus aureus [7]) | MIC (Staphylococcus aureus [9]) | MIC (Staphylococcus aureus [21])
4: Ratio (Staphylococcus aureus [4]) | Ratio (Staphylococcus aureus [6]) | Ratio (Staphylococcus aureus [8]) | Ratio (Staphylococcus aureus [10]) | Ratio (Staphylococcus aureus [12]) | Ratio (Staphylococcus aureus [17]) | Ratio (Staphylococcus aureus [18]) | Ratio (Staphylococcus aureus [20])
0.125 µg/mL: MIC [1] | MIC (Staphylococcus aureus [2]) | MIC [3] | MIC [13] | MIC [14] | MIC [15] | MIC [22] | MIC [23] | MIC [24]
2 µg/mL: MIC (Staphylococcus aureus [5]) | MIC (Staphylococcus aureus [16])
0.0625 µg/mL: MIC (Staphylococcus aureus [19])
0.25 µg/mL: MIC (Staphylococcus aureus [11])

C=C[C@]1(C)C[C@@H](OC(=O)CSCc2csc(NC(=O)CN(CC)CC)n2)[C@]2(C)[C@H](C)CC[C@]3(CCC(=O)[C@H]32)[C@@H](C)[C@@H]1O
0.5 µg/mL: MIC (Staphylococcus aureus [7]) | MIC (Staphylococcus aureus [11])
1 µg/mL: MIC (Staphylococcus aureus [5]) | MIC (Staphylococcus aureus [21])
0.25 µg/mL: MIC [1] | MIC (Staphylococcus aureus [2]) | MIC [3] | MIC [13] | MIC [14] | MIC [15] | MIC (Staphylococcus aureus [19]) | MIC [23] | MIC [24]
2 µg/mL: MIC (Staphylococcus aureus [9]) | MIC [22]
8 µg/mL: MIC (Staphylococcus aureus [16])

C=C[C@]1(C)C[C@@H](OC(=O)CSCc2csc(NC(=O)CN(CCC)CCC)n2)[C@]2(C)[C@H](C)CC[C@]3(CCC(=O)[C@H]32)[C@@H](C)[C@@H]1O
1 µg/mL: MIC (Staphylococcus aureus [2]) | MIC (Staphylococcus aureus [7]) | MIC (Staphylococcus aureus [9])
4 µg/mL: MIC [23] | MIC [24]
0.5 µg/mL: MIC [3] | MIC (Staphylococcus aureus [5]) | MIC (Staphylococcus aureus [11]) | MIC [14] | MIC [15] | MIC (Staphylococcus aureus [16]) | MIC (Staphylococcus aureus [19]) | MIC (Staphylococcus aureus [21])
2 µg/mL: MIC [1] | MIC [22]
8 µg/mL: MIC [13]

C=C[C@]1(C)C[C@@H](OC(=O)CSCc2csc(NC(=O)CN(CCCC)CCCC)n2)[C@]2(C)[C@H](C)CC[C@]3(CCC(=O)[C@H]32)[C@@H](C)[C@@H]1O
16 µg/mL: MIC [1] | MIC (Staphylococcus aureus [2]) | MIC [22] | MIC [24]
4 µg/mL: MIC [3] | MIC (Staphylococcus aureus [5]) | MIC [15] | MIC (Staphylococcus aureus [16]) | MIC (Staphylococcus aureus [21])
8 µg/mL: MIC (Staphylococcus aureus [7]) | MIC (Staphylococcus aureus [9]) | MIC (Staphylococcus aureus [11]) | MIC [13] | MIC [14] | MIC [23]
32 µg/mL: MIC (Staphylococcus aureus [19])

C=C[C@]1(C)C[C@@H](OC(=O)CSCc2csc(NC(=O)CN3CCCC3)n2)[C@]2(C)[C@H](C)CC[C@]3(CCC(=O)[C@H]32)[C@@H](C)[C@@H]1O
0.5 µg/mL: MIC [1] | MIC [15] | MIC (Staphylococcus aureus [19]) | MIC [23] | MIC [24]
0.25 µg/mL: MIC (Staphylococcus aureus [2]) | MIC (Staphylococcus aureus [5]) | MIC (Staphylococcus aureus [7]) | MIC (Staphylococcus aureus [9]) | MIC (Staphylococcus aureus [11]) | MIC [14] | MIC [22]
0.125 µg/mL: MIC [3] | MIC (Staphylococcus aureus [16]) | MIC (Staphylococcus aureus [21])
2 µg/mL: MIC [13]

C=C[C@]1(C)C[C@@H](OC(=O)CSCc2csc(NC(=O)CNC3CCCCC3)n2)[C@]2(C)[C@H](C)CC[C@]3(CCC(=O)[C@H]32)[C@@H](C)[C@@H]1O
1 µg/mL: MIC [1] | MIC [13] | MIC [22]
0.25 µg/mL: MIC [3] | MIC (Staphylococcus aureus [7]) | MIC [15] | MIC (Staphylococcus aureus [16]) | MIC (Staphylococcus aureus [21])
8 µg/mL: MIC [24]
0.5 µg/mL: MIC (Staphylococcus aureus [2]) | MIC (Staphylococcus aureus [5]) | MIC (Staphylococcus aureus [9]) | MIC (Staphylococcus aureus [11]) | MIC [14] | MIC (Staphylococcus aureus [19]) | MIC [23]

C=C[C@]1(C)C[C@@H](OC(=O)CSCc2csc(NC(=O)CNCC(=O)OC)n2)[C@]2(C)[C@H](C)CC[C@]3(CCC(=O)[C@H]32)[C@@H](C)[C@@H]1O
1 µg/mL: MIC (Staphylococcus aureus [11]) | MIC (Staphylococcus aureus [19]) | MIC [22] | MIC [24]
0.5 µg/mL: MIC [1] | MIC (Staphylococcus aureus [2]) | MIC (Staphylococcus aureus [5]) | MIC (Staphylococcus aureus [7]) | MIC (Staphylococcus aureus [9]) | MIC [14] | MIC [15] | MIC [23]
4 µg/mL: MIC [13]
0.25 µg/mL: MIC [3] | MIC (Staphylococcus aureus [16]) | MIC (Staphylococcus aureus [21])

CC1(C)S[C@@H]2[C@H](NC(=O)[C@H](N)c3ccc(O)cc3)C(=O)N2[C@H]1C(=O)O [AMOXICILLIN]
8 µg/mL: MIC (Staphylococcus aureus [9]) | MIC [14] | MIC [15] | MIC [22] | MIC [23]
0.125 µg/mL: MIC [1] | MIC [3] | MIC [13] | MIC (Staphylococcus aureus [19]) | MIC [24]
2 µg/mL: MIC (Staphylococcus aureus [16])
4 µg/mL: MIC (Staphylococcus aureus [7]) | MIC (Staphylococcus aureus [11]) | MIC (Staphylococcus aureus [21])
1 µg/mL: MIC (Staphylococcus aureus [2]) | MIC (Staphylococcus aureus [5])
